Results as given in US8492388B2 (priority 2008, dated 2013).

Assay: Measurement of logP values by HPLC on reversed phase columns (EEC directive 79/831 Annex V.A8)
Conditions: not given
Work on `COC(=O)c1cccc(CCl)c1` [3-(chloromethyl)benzoate, methyl 3-(chloromethyl)benzoate] yielded a chromatographic logP of 2.64. Work on `Cn1nnnc1C(=NO)c1cccc(OC(F)(F)F)c1` [N-hydroxy-1-(1-methyl-1H-tetrazol-5-yl)-1-[3-(trifluoromethoxy)phenyl]methanimine] yielded a chromatographic logP of 2.37. In the case of `COCc1cccc(C(=O)O)c1` [3-(methoxymethyl)benzoic acid], the chromatographic logP was 1.33. In the case of `COCc1cccc(C(=NOCc2cccc(NC(=O)OC(C)(C)C)n2)c2nnnn2C)c1` [Example 32, tert-butyl (6-{[({[3-(methoxymethyl)phenyl](1-methyl-1H-tetrazol-5-yl)methylene}amino)oxy]methyl}pyridin-2-yl)carbamate], the chromatographic logP was 3.71. `Cn1nnnc1C(=NOCc1csc(N)n1)c1cccc(OC(F)(F)F)c1` [Example 46, 4-{[({(1-methyl-1H-tetrazol-5-yl)[3-(trifluoromethoxy)phenyl]methylene}amino)oxy]methyl}-1,3-thiazol-2-amine] showed a chromatographic logP of 2.1. Work on `Cn1nnnc1C(=NOCc1csc(NC(=O)COc2ccccc2)n1)c1cccc(OC(F)(F)F)c1` [Example 53, N-(4-{[({(1-methyl-1H-tetrazol-5-yl)[3-(trifluoromethoxy)phenyl]methylene}amino)oxy]methyl}-1,3-thiazol-2-yl)-2-phenoxyacetamide] yielded a chromatographic logP of 3.99. Work on `Cn1nnnc1C(=O)c1cccc(OC(F)(F)F)c1` [(1-methyl-1H-tetrazol-5-yl)[3-(trifluoromethoxy)phenyl]methanone] yielded a chromatographic logP of 2.96. Compound `COCc1cccc(C(=O)N(C)OC)c1` [N-methoxy-3-(methoxymethyl)-N-methylbenzamide] has a chromatographic logP of 1.43. Compound `CN(C)c1cccc(C(=NOCc2cccc(NC(=O)C(F)(F)Oc3ccccc3)n2)c2nnnn2C)c1` [Example 30, N-(6-{[({[3-(dimethylamino)phenyl](1-methyl-1H-tetrazol-5-yl)methylene}amino)oxy]methyl}pyridin-2-yl)-2,2-difluoro-2-phenoxyacetamide] has a chromatographic logP of 4.14. With `COCc1cccc(C(=NO)c2nnnn2C)c1` [N-hydroxy-1-[3-(methoxymethyl)phenyl]-1-(1-methyl-1H-tetrazol-5-yl)methanimine] the chromatographic logP was 1.54. For `COCc1cccc(C(=O)c2nnnn2C)c1` [[3-(methoxymethyl)phenyl](1-methyl-1H-tetrazol-5-yl)methanone], the chromatographic logP was 2.01. `CON(C)C(=O)c1cccc(OC(F)(F)F)c1` [N-methoxy-N-methyl-3-(trifluoromethoxy)benzamide] showed a chromatographic logP of 2.41.

Same assay, conditions: HPLC reversed phase, pH 2,7, 0.1% formic acid in water / acetonitrile gradient
In the case of `C#CCCOC(=O)Nc1cccc(CON=C(c2cccc(N(C)C)c2)c2nnnn2C)n1` [Example 23], the logp was 3.21. In the case of `CCCCCOC(=O)Nc1cccc(CON=C(c2cccc(COC)c2)c2nnnn2C)n1` [Example 38], the logp was 4.18. In the case of `CC#CCOC(=O)Nc1cccc(CON=C(c2cccc(COC)c2)c2nnnn2C)n1` [Example 33], the logp was 3.21. `C=CCCOC(=O)Nc1cccc(CON=C(c2cccc(N(C)C)c2)c2nnnn2C)n1` [Example 24] showed a logp of 3.64. `CON(C)C(=O)Nc1cccc(CON=C(c2cccc(N(C)C)c2)c2nnnn2C)n1` [Example 31] showed a logp of 2.71. Compound `Cn1nnnc1C(=NOCc1cccc(N)n1)c1cccc(OC(F)(F)F)c1` [Example 5] has a logp of 1.69. In the case of `C=CCCOC(=O)Nc1cccc(CON=C(c2cccc(OC(F)(F)F)c2)c2nnnn2C)n1` [Example 8], the logp was 4.2. With `C=CCCOC(=O)Nc1nc(CON=C(c2cccc(SC)c2)c2nnnn2C)cs1` [Example 21] the logp was 3.64.

Same assay, conditions: pH 2.7
With `COCc1cccc(C(=NOCc2cccc(NC(=O)OC(C)(C)C)n2)c2nnnn2C)c1` [Example 32, tert-butyl (6-{[({[3-(methoxymethyl)phenyl](1-methyl-1H-tetrazol-5-yl)methylene}amino)oxy]methyl}pyridin-2-yl)carbamate] the chromatographic logP was 3.71. `Cn1nnnc1C(=NOCc1csc(N)n1)c1cccc(OC(F)(F)F)c1` [Example 46, 4-{[({(1-methyl-1H-tetrazol-5-yl)[3-(trifluoromethoxy)phenyl]methylene}amino)oxy]methyl}-1,3-thiazol-2-amine] showed a chromatographic logP of 2.1. In the case of `Cn1nnnc1C(=NOCc1csc(NC(=O)COc2ccccc2)n1)c1cccc(OC(F)(F)F)c1` [Example 53, N-(4-{[({(1-methyl-1H-tetrazol-5-yl)[3-(trifluoromethoxy)phenyl]methylene}amino)oxy]methyl}-1,3-thiazol-2-yl)-2-phenoxyacetamide], the chromatographic logP was 3.99. In the case of `CN(C)c1cccc(C(=NOCc2cccc(N)n2)c2nnnn2C)c1` [Example 22, 6-{[({[3-(dimethylamino)phenyl](1-methyl-1H-tetrazol-5-yl)methylene}amino)oxy]methyl}pyridin-2-amine], the chromatographic logP was 1.19. Work on `CN(C)c1cccc(C(=NOCc2cccc(NC(=O)C(F)(F)Oc3ccccc3)n2)c2nnnn2C)c1` [Example 30, N-(6-{[({[3-(dimethylamino)phenyl](1-methyl-1H-tetrazol-5-yl)methylene}amino)oxy]methyl}pyridin-2-yl)-2,2-difluoro-2-phenoxyacetamide] yielded a chromatographic logP of 4.14.
